# Data as given in the supplement of paper PMC13380429.
# Columns and labels:
# Settings in all cases: 72 h
# Caco-2 [1] = assay: relative viability EC50 (midpoint between 100% and the lowest measured viability); higher = less toxic
# Vero E6 [2] = assay: as above
# U2OS [3] = assay: as above
# Calu-3 [4] = assay: as above
# HepG2 [5] = assay: as above
# Caco-2 [6] = assay: cell viability relative to DMSO; higher = less toxic
# Vero E6 [7] = assay: as above
# U2OS [8] = assay: as above
# Calu-3 [9] = assay: as above
# HepG2 [10] = assay: as above
# Caco-2 [11] = assay: drug sensitivity score (DSS) for viability; higher = more toxic; extreme values may be limits of the assay
# Vero E6 [12] = assay: as above
# U2OS [13] = assay: as above
# Calu-3 [14] = assay: as above
# HepG2 [15] = assay: as above
SMILES,relative viability EC50 (Caco-2 [1]) [µM],relative viability EC50 (Vero E6 [2]) [µM],relative viability EC50 (U2OS [3]) [µM],relative viability EC50 (Calu-3 [4]) [µM],relative viability EC50 (HepG2 [5]) [µM],cell viability (Caco-2 [6]; 1 nM) [%],cell viability (Caco-2 [6]; 10 nM) [%],cell viability (Caco-2 [6]; 100 nM) [%],cell viability (Caco-2 [6]; 1000 nM) [%],cell viability (Caco-2 [6]; 10000 nM) [%],cell viability (Vero E6 [7]; 1 nM) [%],cell viability (Vero E6 [7]; 10 nM) [%],cell viability (Vero E6 [7]; 100 nM) [%],cell viability (Vero E6 [7]; 1000 nM) [%],cell viability (Vero E6 [7]; 10000 nM) [%],cell viability (U2OS [8]; 1 nM) [%],cell viability (U2OS [8]; 10 nM) [%],cell viability (U2OS [8]; 100 nM) [%],cell viability (U2OS [8]; 1000 nM) [%],cell viability (U2OS [8]; 10000 nM) [%],cell viability (Calu-3 [9]; 1 nM) [%],cell viability (Calu-3 [9]; 10 nM) [%],cell viability (Calu-3 [9]; 100 nM) [%],cell viability (Calu-3 [9]; 1000 nM) [%],cell viability (Calu-3 [9]; 10000 nM) [%],cell viability (HepG2 [10]; 1 nM) [%],cell viability (HepG2 [10]; 10 nM) [%],cell viability (HepG2 [10]; 100 nM) [%],cell viability (HepG2 [10]; 1000 nM) [%],cell viability (HepG2 [10]; 10000 nM) [%],drug sensitivity score (Caco-2 [11]),drug sensitivity score (Vero E6 [12]),drug sensitivity score (U2OS [13]),drug sensitivity score (Calu-3 [14]),drug sensitivity score (HepG2 [15])
CNS(=O)(=O)Cc1ccc2[nH]cc(CCN(C)C)c2c1 [sumatriptan],> 10,> 10,> 10,> 10,> 10,91.4,96.7,104,106,96.2,91.6,94.4,87.9,94.7,103,98.1,95.2,97.8,96.2,97.7,101,95.7,93.6,100,94.4,81.4,106,89.1,101,99.5,0,0,0,0,0
O=C1CCC[C@@H]2[C@H]3CCC[N+]4([O-])CCC[C@@H](CN12)[C@@H]34 (stereo not given in full) [oxymatrine],> 10,> 10,> 10,> 10,> 10,97.1,103,96.6,95.5,88.3,102,97.5,101,98.4,104,97.8,106,98,102,96.7,89,93.1,101,91.7,86.9,104,97.6,98.5,96.3,108,0,0,0,0,0
O[C@@H](CN1CCC(Cc2ccc(F)cc2)CC1)c1ccc(Cl)cc1 (racemic) [eliprodil],> 10,> 10,> 10,> 10,> 10,100,96.2,101,103,104,98.8,92,98.8,98.1,105,91.1,93.3,87.3,87.9,97.6,99.2,95.2,106,92.3,104,96.6,99.7,97.8,87.6,108,0,0,0,0,0
O=C(O)c1ccc(NC(=O)[C@H](Cc2ccc(O)cc2)NC(=O)c2ccccc2)cc1 [bentiromide],> 10,> 10,> 10,> 10,> 10,92.1,92,92.3,87,104,93.5,107,94.4,99,106,105,102,107,99.5,108,107,101,104,95.4,95,91.9,116,102,106,102,0,0,0,0,0
CNC(=S)C1(c2ccccn2)CCCS1 (stereo not given) [picartamide],> 10,> 10,> 10,> 10,> 10,94.1,96.8,92.9,95.1,99.4,103,96.5,106,101,93.7,99.5,104,96.2,99.4,106,96.9,93,102,106,106,98.3,93.6,103,99.6,97.8,0,0,0,0,0
CN1CCN(c2nc3ccccc3nc2Cl)CC1,> 10,> 10,> 10,> 10,> 10,89.4,90.5,98.3,88.4,91.6,101,102,103,94.2,97.5,95.9,97.6,99,103,96.3,93.4,105,106,92.4,98.3,97.2,92.9,104,93,95.9,0,0,0,0,0
C[C@]12CCC(=O)C=C1CC[C@@H]1[C@@H]2[C@@H](O)C[C@@]2(C)[C@H]1CC[C@]2(O)C(=O)COP(=O)(O)O [hydrocortisone-phosphate],> 10,> 10,> 10,> 10,> 10,100,101,103,110,94.1,106,100,106,100,104,101,101,97.1,100,95,98.3,102,98.5,99.8,93.8,99.2,99.8,105,89.5,94.3,0,0,0,0,0.1
O=C(c1ccc(F)cc1)N1CCC[C@H](c2nc(-c3ccc(F)cc3)no2)C1,> 10,> 10,> 10,> 10,> 10,101,94.3,91.8,99.7,87.9,98.3,93.5,94.7,93.9,95.5,94,101,99.9,98.8,91.7,90,100,85.3,98.2,75.5,93.7,99.4,93,96,91.1,0,0,0,1.2,0
CCCCC(=O)O[C@H]1CC[C@H]2[C@@H]3CCc4cc(O)ccc4[C@H]3CC[C@]12C [ESTRADIOL VALERATE],> 10,> 10,> 10,> 10,> 10,104,94.6,97,105,85.8,101,102,103,99.5,100,106,108,103,106,96.5,99.8,104,96.4,97.8,83.8,109,106,101,97.6,108,0.1,0,0,0.6,0
O=c1[nH]c(=O)n([C@H]2C[C@H](O)[C@@H](CO)O2)cc1F [floxuridine],0.0088,0.134,> 10,> 10,0.0144,88.4,62,42,29.9,44.6,97.2,91.8,74.6,53.6,42.2,95.3,99.9,101,105,82.6,101,85.1,93.6,88.9,89,109,66.2,59.4,50,43.1,24.9,11.8,0.3,0.5,19
Clc1cccc(C(c2ccc3[nH]cnc3c2)n2ccnc2)c1 (stereo not given) [liarozole],> 10,> 10,> 10,> 10,> 10,97.2,87.8,98.7,93.9,85.4,94.2,90.5,94.8,94.8,95,97.8,95,95.5,93.9,96.3,99,96.1,93.8,103,101,99.6,104,99.3,111,89.3,0,0,0,0,0
C=CC(=O)Nc1cc(Nc2nccc(-c3c[nH]c4ccccc34)n2)c(OC)cc1N(C)CCN(C)C [AZ5104],0.563,0.397,1.13,0.0093,1.19,89.1,87.6,81.7,62.1,24.3,88.8,93.8,61.6,49.7,0.2,104,95.2,95.4,59.6,8.6,82.8,56.2,32.5,33.3,17.4,98.2,94.2,84.2,64,9.2,10.3,15.6,9.8,27.9,9.3
CCC/N=C1\S/C(=C\c2ccc(OC[C@H](O)CO)c(Cl)c2)C(=O)N1c1ccccc1C [ponesimod],> 10,> 10,> 10,> 10,> 10,91.2,100,95.6,99,79.6,100,94,91.5,91.5,93.7,98.5,100,100,101,98.4,90.5,103,105,105,108,95.8,89.6,99.5,102,91.6,0.7,0,0,0,0
CC1(C)Oc2ccc(C#N)cc2[C@@H](N2CCCC2=O)[C@@H]1O [levcromakalim],> 10,> 10,> 10,> 10,> 10,96.5,99.7,99.1,88.5,99.6,92.1,96.6,97.1,97.2,93.7,103,102,99.4,98,101,85.7,105,91.8,104,102,109,105,98,101,96.2,0,0,0,0,0
